Experimental data as given in PMC9388697 (Biometals : an international journal on the role of metal …, 2022).

Target: Mar2 (Thermoanaerobacterium thermosaccharolyticum, UniProt D9TSN9, K173F/K351T)
Test: lactate racemase activity, L-lactate determined with Megazyme kit
Type: biochemical
Settings: 200 mM D-lactate; in vitro synthesized NPN; 35 °C; 30 min

C[C@@H](O)C(=O)O [D-lactate] was tested, and the “% of TtLarA activity” value was “a small but substantial lactate racemase (Lar) activity was detected for the purified enzymes”.
